Experimental data published in patent publication US20250092065A1, “2-(INDAZOL-5-YL)-6-(PIPERIDIN-4-YL)-1,7-NAPHTHYRIDINE DERIVATIVES AND RELATED COMPOUNDS AS MODULATORS FOR SPLICING NUCLEIC ACIDS AND FOR THE TREATMENT OF PROLIFERATIVE DISEASES” (REMIX THERAPEUTICS INC., priority 2022, published 2025).

What was measured:
[1] = test system: K562 cells; test: Cell Titer Glo 2.0 cell viability (toxicity) assay, K562; conditions: 500 cells/well, 72 hours
[2] = test system: Target C; test: RT-qPCR canonical junction panel assay, Target C mRNA; format: cell-based; conditions: Table 4, read-out: Target C IC50 (decrease in CJ mRNA levels)
Method in brief: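 A673 or K562 cells treated with compound; CJ mRNA quantified by junction-spanning RT-qPCR probe after cDNA synthesis, normalised to GAPDH, GUSB or PPIA and DMSO (2^−ΔΔCt), scaled to set ΔCt assay window; IC50 from 4-parameter fit of CJ decrease.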

[3] = test system: SMN2 mRNA; test: RT-qPCR splicing assay, SMN2 mRNA; format: cell-based, human; conditions: Homo sapiens, canonical junction qPCR panel, Table 4; read-out: SMN2 IC50 (decrease in CJ mRNA levels)
Method in brief: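 A673 or K562 cells treated 24 h at 37 °C with 11-point 3-fold dilutions (top final 10 uM, DMSO ≤0.25%). Lysates analysed by one-step RT-qPCR for canonical (CJ) and alternative-exon (AJ) junctions, normalized to GAPDH, GUSB or PPIA. ΔΔCt vs DMSO, RQ = 2^(−ΔΔCt), expressed as percentage response.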

## Cc1nc2c(F)c(O)c(-c3ccc4nc(N5CCC(NC(C)C)C5)ccc4n3)cc2o1 (stereo not drawn) [Compound 328, 4-fluoro-6-{6-[3-(isopropylamino)pyrrolidin-1-yl]-1,5-naphthyridin-2-yl}-2-methyl-1,3-benzoxazol-5-ol]
[1]
  Effect of Exemplary Compounds on Cell Viability, K562: A (A represents <100 nM)
[2]
  IC50: < 0.1 µM
[3]
  IC50: < 0.1 µM

## CN[C@@H]1CCN(c2ccc3nc(-c4cc(F)c5nc(C)cn5c4)ncc3n2)C1 [Compound 331, (3R)-1-(2-{8-fluoro-2-methylimidazo[1,2-a]pyridin-6-yl}pyrido[3,2-d]pyrimidin-6-yl)-N-methylpyrrolidin-3-amine]
[1]
  Effect of Exemplary Compounds on Cell Viability, K562: B (B represents 100-1000 nM)
[2]
  IC50: 0.1 to 1 µM
[3]
  IC50: < 0.1 µM

## CN[C@H]1CCN(c2ccc3nc(-c4cc(F)c5nc(C)cn5c4)ncc3n2)C1 [Compound 332, (S)-1-(2-(8-fluoro-2-methylimidazo[1,2-a]pyridin-6-yl)pyrido[3,2-d]pyrimidin-6-yl)-N-methylpyrrolidin-3-amine]
[1]
  Effect of Exemplary Compounds on Cell Viability, K562: B (B represents 100-1000 nM)
[2]
  IC50: 0.1 to 1 µM
[3]
  IC50: < 0.1 µM

## CC(C)(C)NC1CCN(c2ccc3nc(-c4cc5oc(C6CC6)nc5cc4O)ccc3n2)C1 (stereo not drawn) [Compound 333, 6-{6-[3-(tert-butylamino)pyrrolidin-1-yl]-1,5-naphthyridin-2-yl}-2-cyclopropyl-1,3-benzoxazol-5-ol]
[1]
  Effect of Exemplary Compounds on Cell Viability, K562: B (B represents 100-1000 nM)
[2]
  IC50: 0.1 to 1 µM
[3]
  IC50: 0.1 to 1 µM

## COCc1nc2cc(O)c(-c3ccc4nc(N5CCC(NC(C)(C)C)C5)ccc4n3)cc2o1 (stereo not drawn) [Compound 334, 6-{6-[3-(tert-butylamino)pyrrolidin-1-yl]-1,5-naphthyridin-2-yl}-2-(methoxymethyl)-1,3-benzoxazol-5-ol]
[1]
  Effect of Exemplary Compounds on Cell Viability, K562: B (B represents 100-1000 nM)
[2]
  IC50: 0.1 to 1 µM
[3]
  IC50: 0.1 to 1 µM

## COc1cc2nc(C3COC3)oc2cc1-c1ccc2nc(N3CCC(NC(C)(C)C)C3)ccc2n1 (stereo not drawn) [Compound 335]
[1]
  Effect of Exemplary Compounds on Cell Viability, K562: C (C represents 1000-9999 nM)
[2]
  IC50: 1 to 10 µM
[3]
  IC50: 1 to 10 µM

## CC(C)(C)NC1CCN(c2ccc3nc(-c4cc5oc(CO)nc5cc4O)ccc3n2)C1 (stereo not drawn) [Compound 336, 6-{6-[3-(tert-butylamino)pyrrolidin-1-yl]-1,5-naphthyridin-2-yl}-2-(hydroxymethyl)-1,3-benzoxazol-5-ol]
[1]
  Effect of Exemplary Compounds on Cell Viability, K562: A (A represents <100 nM)
[2]
  IC50: 0.1 to 1 µM
[3]
  IC50: < 0.1 µM

## CNC1CCN(c2ccc3nc(-c4cc5cn(C)nc5c(C)c4O)ncc3n2)C1 (stereo not drawn) [Compound 337, 2,7-dimethyl-5-{6-[3-(methylamino)pyrrolidin-1-yl]pyrido[3,2-d]pyrimidin-2-yl}indazol-6-ol]
[1]
  Effect of Exemplary Compounds on Cell Viability, K562: A (A represents <100 nM)
[2]
  IC50: > 10 µM
[3]
  IC50: < 0.1 µM

## Cc1c(O)c(-c2ncc3nc(N4CCNCC4)ccc3n2)cc2cn(C)nc12 [Compound 338, 2,7-dimethyl-5-[6-(piperazin-1-yl)pyrido[3,2-d]pyrimidin-2-yl]indazol-6-ol]
[1]
  Effect of Exemplary Compounds on Cell Viability, K562: B (B represents 100-1000 nM)
[2]
  IC50: 1 to 10 µM
[3]
  IC50: < 0.1 µM

## Cc1nc2cc(O)c(-c3ccc4nc(N5CCC(NC(C)(C)C)C5)ccc4n3)cc2n1C (stereo not drawn) [Compound 339, 6-{6-[3-(tert-butylamino)pyrrolidin-1-yl]-1,5-naphthyridin-2-yl}-1,2-dimethyl-1,3-benzodiazol-5-ol]
[1]
  Effect of Exemplary Compounds on Cell Viability, K562: B (B represents 100-1000 nM)
[2]
  IC50: 0.1 to 1 µM
[3]
  IC50: 0.1 to 1 µM

## Cc1nc2cc(-c3ccc4nc(N5CCC(NC(C)(C)C)C5)ccc4n3)c(O)cc2n1C (stereo not drawn) [Compound 340, 6-{6-[3-(tert-butylamino)pyrrolidin-1-yl]-1,5-naphthyridin-2-yl}-2,3-dimethyl-1,3-benzodiazol-5-ol]
[1]
  Effect of Exemplary Compounds on Cell Viability, K562: A (A represents <100 nM)
[2]
  IC50: 0.1 to 1 µM
[3]
  IC50: 0.1 to 1 µM

## Cn1cc2cc(-c3ccc4nc(N5CCC(NC67CC(O)(C6)C7)C5)ccc4n3)c(O)cc2n1 (stereo not drawn) [Compound 341, 5-{6-[3-({3-hydroxybicyclo[1.1.1]pentan-1-yl}amino)pyrrolidin-1-yl]-1,5-naphthyridin-2-yl}-2-methylindazol-6-ol]
[1]
  Effect of Exemplary Compounds on Cell Viability, K562: B (B represents 100-1000 nM)
[2]
  IC50: 0.1 to 1 µM
[3]
  IC50: < 0.1 µM

## Cc1c(O)c(-c2ncc3nc(N4CCC5(CCN5)C4)ccc3n2)cc2cn(C)nc12 (stereo not drawn) [Compound 342, 5-(6-{1,6-diazaspiro[3.4]octan-6-yl}pyrido[3,2-d]pyrimidin-2-yl)-2,7-dimethylindazol-6-ol]
[1]
  Effect of Exemplary Compounds on Cell Viability, K562: B (B represents 100-1000 nM)
[2]
  IC50: 0.1 to 1 µM
[3]
  IC50: < 0.1 µM

## Cc1cc2nc(-c3ccc4nc(N5CCC(NC(C)(C)C)C5)ccc4n3)cn2c(C)n1 (stereo not drawn) [Compound 344, N-tert-butyl-1-(6-{5,7-dimethylimidazo[1,2-c]pyrimidin-2-yl}-1,5-naphthyridin-2-yl)pyrrolidin-3-amine]
[1]
  Effect of Exemplary Compounds on Cell Viability, K562: D (D represents greater than 10 μM in K562 cells)
[2]
  IC50: > 10 µM
[3]
  IC50: < 0.1 µM

## CCc1nc2cc(O)c(-c3ccc4nc(N5CCC(NC(C)(C)C)C5)ccc4n3)cc2o1 (stereo not drawn) [Compound 346, 6-{6-[3-(tert-butylamino)pyrrolidin-1-yl]-1,5-naphthyridin-2-yl}-2-ethyl-1,3-benzoxazol-5-ol]
[1]
  Effect of Exemplary Compounds on Cell Viability, K562: C (C represents 1000-9999 nM)
[2]
  IC50: 1 to 10 µM
[3]
  IC50: 0.1 to 1 µM

## Cc1nc2cc(O)c(-c3ccc4nc(N5CC[C@H](N[C@H]6C[C@H](F)C6)C5)ccc4n3)cc2o1 [Compound 350, 2-methyl-6-{6-[(3S)-3-{[(1r,3r)-3-fluorocyclobutyl]amino}pyrrolidin-1-yl]-1,5-naphthyridin-2-yl}-1,3-benzoxazol-5-ol]
[1]
  Effect of Exemplary Compounds on Cell Viability, K562: B (B represents 100-1000 nM)
[2]
  IC50: 0.1 to 1 µM
[3]
  IC50: < 0.1 µM
